{"source": "patent US20110218189A1", "about": "“PYRROLO[2,3-d]PYRIMIDIN-2-YL-AMINE DERIVATIVES AS PKC-THETA INHIBITORS” (N.V. ORGANON, priority 2008, published 2011)"}
{"molecular_target": "T1, His-tagged human recombinant active PKC theta (Homo sapiens, UniProt Q04759)", "T1 construct": "His; made in house", "T1 sequence (Q04759 whole entry)": "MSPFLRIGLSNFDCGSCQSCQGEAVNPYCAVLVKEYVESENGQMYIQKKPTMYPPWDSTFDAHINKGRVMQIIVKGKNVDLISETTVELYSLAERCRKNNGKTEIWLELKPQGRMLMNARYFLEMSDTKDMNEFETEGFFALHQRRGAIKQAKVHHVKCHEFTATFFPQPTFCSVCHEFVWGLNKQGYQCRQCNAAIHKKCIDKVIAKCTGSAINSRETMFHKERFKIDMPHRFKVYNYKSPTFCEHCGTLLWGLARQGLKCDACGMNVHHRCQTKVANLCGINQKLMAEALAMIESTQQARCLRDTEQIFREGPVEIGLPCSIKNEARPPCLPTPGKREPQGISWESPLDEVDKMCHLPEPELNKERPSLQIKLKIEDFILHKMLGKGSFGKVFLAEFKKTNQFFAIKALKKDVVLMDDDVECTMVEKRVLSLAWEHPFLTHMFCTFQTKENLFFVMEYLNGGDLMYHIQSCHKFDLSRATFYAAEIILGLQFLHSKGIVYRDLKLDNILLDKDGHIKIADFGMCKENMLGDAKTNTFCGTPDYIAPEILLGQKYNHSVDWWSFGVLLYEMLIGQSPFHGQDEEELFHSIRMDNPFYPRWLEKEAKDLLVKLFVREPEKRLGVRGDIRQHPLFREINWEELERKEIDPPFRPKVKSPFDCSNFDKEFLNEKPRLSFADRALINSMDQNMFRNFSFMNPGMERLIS", "assay": "IMAP fluorescence polarization assay, inhibition of PKC theta kinase activity", "type": "biochemical", "conditions": "ATP 10 μM, peptide substrate 50 nM, 60 minutes at 30° C.; read-out: IC50 IMAP PKCθ", "protocol": "Inhibition of PKC theta kinase activity was measured using an Immobilized Metal for Phosphochemicals—based coupled assay (IMAP). IMAP is a homogeneous fluorescence polarization (FP) assay based on affinity capture of phosphorylated peptide substrates. IMAP uses fluorescein-labeled peptide substrates that, upon phosphorylation by a protein kinase, bind to so called IMAP nanoparticles, which are derivatized with trivalent metal complexes. Such binding causes a change in the rate of the molecular motion of the peptide, and results in an increase in the FP value observed for the fluorescein label attached to the substrate peptide. In this assay, PKC theta directly phosphorylates the fluorescein-labeled peptide substrate.\nEnzymes, substrate and ATP are diluted at all steps in Kinase Reaction buffer (10 mM Tris-HCl, 10 mM MgCl2, 0.01% Tween-20, 0.05% NaN3 pH 7.2, 1 mM DTT). The final volume at the kinase reaction step of the assay in the 384-well plate is 20 μl. The concentrations presented within brackets are final concentrations. First, compounds or DMSO (1%) are added to the wells. Thereafter, peptide substrate (Pseudosubstrate LHQRRGSIKQAKVHHVK-FL, Neosystem, 50 nM) and ATP (10 μM) are added followed by the addition of the PKC theta enzyme (His-tagged human recombinant active PKC theta, 82 kDa, in-house purified, 10 ng/ml), and the mix is incubated for 60 minutes at 30° C. in the dark. Then IMAP progressive binding buffer (100% 1× buffer A, 1:400 Progressive Binding Reagent; Molecular Devices) is added followed by an incubation step of 60 minutes at room temperature in the dark. Finally, the FP signal is read.", "units": {"IC50": "nM"}}
{"smiles": "Fc1ccc(CNc2ncc3cc(-c4ccccc4Cl)n(C[C@@H]4CCCNC4)c3n2)cc1F", "note": "[Example 1.1, (R)-6-(2-chlorophenyl)-N-(3,4-difluorobenzyl)-7-(piperidin-3-ylmethyl)-7H-pyrrolo[2,3-d]pyrimidin-2-amine]", "IC50": "< 10"}
{"smiles": "Oc1ccc(CNc2ncc3cc(-c4ccccc4Cl)n(C[C@@H]4CCCNC4)c3n2)cc1", "note": "[Example 1.2, (R)-4-((6-(2-chlorophenyl)-7-(piperidin-3-ylmethyl)-7H-pyrrolo[2,3-d]pyrimidin-2-ylamino)methyl)phenol]", "IC50": "10 to 100"}
{"smiles": "Oc1cccc(CNc2ncc3cc(-c4ccccc4Cl)n(C[C@@H]4CCCNC4)c3n2)c1", "note": "[Example 1.3, (R)-3-((6-(2-chlorophenyl)-7-(piperidin-3-ylmethyl)-7H-pyrrolo[2,3-d]pyrimidin-2-ylamino)methyl)phenol]", "IC50": "10 to 100"}
{"smiles": "Oc1ccc(CNc2ncc3cc(-c4ccccc4Cl)n(C[C@@H]4CCCNC4)c3n2)cc1F", "note": "[Example 1.4, (R)-4-((6-(2-chlorophenyl)-7-(piperidin-3-ylmethyl)-7H-pyrrolo[2,3-d]pyrimidin-2-ylamino)methyl)-2-fluorophenol]", "IC50": "< 10"}
{"smiles": "Oc1cccc(CNc2ncc3cc(-c4c(Cl)cccc4Cl)n(C[C@@H]4CCCNC4)c3n2)c1", "note": "[Example 2.1, (R)-3-((6-(2,6-dichlorophenyl)-7-(piperidin-3-ylmethyl)-7H-pyrrolo[2,3-d]pyrimidin-2-ylamino)methyl)phenol]", "IC50": "< 10"}
{"smiles": "Fc1ccc(CNc2ncc3cc(-c4c(Cl)cccc4Cl)n(C[C@@H]4CCCNC4)c3n2)cc1F", "note": "[Example 2.2, (R)-6-(2,6-dichlorophenyl)-N-(3,4-difluorobenzyl)-7-(piperidin-3-ylmethyl)-7H-pyrrolo[2,3-d]pyrimidin-2-amine]", "IC50": "< 10"}
{"smiles": "Oc1ccc(CNc2ncc3cc(-c4c(Cl)cccc4Cl)n(C[C@@H]4CCCNC4)c3n2)cc1", "note": "[Example 2.3, (R)-4-((6-(2,6-dichlorophenyl)-7-(piperidin-3-ylmethyl)-7H-pyrrolo[2,3-d]pyrimidin-2-ylamino)methyl)phenol]", "IC50": "100 to 10000"}
{"smiles": "COc1ccc(CNc2ncc3cc(-c4c(Cl)cccc4Cl)n(C[C@@H]4CCCNC4)c3n2)cc1F", "note": "[Example 2.4, (R)-6-(2,6-dichlorophenyl)-N-(3-fluoro-4-methoxybenzyl)-7-(piperidin-3-ylmethyl)-7H-pyrrolo[2,3-d]pyrimidin-2-amine]", "IC50": "< 10"}
{"smiles": "Fc1cccc(CNc2ncc3cc(-c4c(Cl)cccc4Cl)n(C[C@@H]4CCCNC4)c3n2)c1", "note": "[Example 2.5, (R)-6-(2,6-dichlorophenyl)-N-(3-fluorobenzyl)-7-(piperidin-3-ylmethyl)-7H-pyrrolo[2,3-d]pyrimidin-2-amine]", "IC50": "< 10"}
{"smiles": "Clc1cccc(Cl)c1-c1cc2cnc(NCc3ccccc3)nc2n1C[C@@H]1CCCNC1", "note": "[Example 2.6, (R)-N-benzyl-6-(2,6-dichlorophenyl)-7-(piperidin-3-ylmethyl)-7H-pyrrolo[2,3-d]pyrimidin-2-amine]", "IC50": "< 10"}
{"smiles": "Cc1c(-c2ccccc2Cl)n(C[C@@H]2CCCNC2)c2nc(NCc3ccc(F)c(F)c3)ncc12", "note": "[Example 3.1, (R)-6-(2-chlorophenyl)-N-(3,4-difluorobenzyl)-5-methyl-7-(piperidin-3-ylmethyl)-7H-pyrrolo[2,3-d]pyrimidin-2-amine]", "IC50": "10 to 100"}
{"smiles": "Cc1c(-c2c(Cl)cccc2Cl)n(C[C@@H]2CCCNC2)c2nc(NCc3ccc(F)c(F)c3)ncc12", "note": "[Example 3.2, (R)-6-(2,6-dichlorophenyl)-N-(3,4-difluorobenzyl)-5-methyl-7-(piperidin-3-ylmethyl)-7H-pyrrolo[2,3-d]pyrimidin-2-amine]", "IC50": "< 10"}
{"smiles": "Cc1c(-c2ccccc2)n(C[C@@H]2CCCNC2)c2nc(NCc3ccc(F)c(F)c3)ncc12", "note": "[Example 3.3, (R)—N-(3,4-difluorobenzyl)-5-methyl-6-phenyl-7-(piperidin-3-ylmethyl)-7H-pyrrolo[2,3-d]pyrimidin-2-amine]", "IC50": "100 to 10000"}
{"smiles": "Fc1ccc(CNc2ncc3cc(-c4ccccc4Cl)n(C[C@H]4CCCNC4)c3n2)cc1F", "note": "[Example 4.1, (S)-6-(2-chlorophenyl)-N-(3,4-difluorobenzyl)-7-(piperidin-3-ylmethyl)-7H-pyrrolo[2,3-d]pyrimidin-2-amine]", "IC50": "10 to 100"}
{"smiles": "Fc1ccc(CNc2ncc3cc(-c4ccccc4Cl)n(C[C@@H]4CCNC4)c3n2)cc1F", "note": "[Example 4.2, (R)-6-(2-chlorophenyl)-N-(3,4-difluorobenzyl)-7-(pyrrolidin-3-ylmethyl)-7H-pyrrolo[2,3-d]pyrimidin-2-amine]", "IC50": "100 to 10000"}
{"smiles": "Fc1ccc(CNc2ncc3cc(-c4ccccc4Cl)n(C[C@H]4CCNC4)c3n2)cc1F", "note": "[Example 4.3, (S)-6-(2-chlorophenyl)-N-(3,4-difluorobenzyl)-7-(pyrrolidin-3-ylmethyl)-7H-pyrrolo[2,3-d]pyrimidin-2-amine]", "IC50": "10 to 100"}
{"smiles": "Fc1ccc(CNc2ncc3cc(-c4ccccc4Cl)n(CC4CNCCO4)c3n2)cc1F", "note": "(centres unmarked) [Example 4.4, 6-(2-chlorophenyl)-N-(3,4-difluorobenzyl)-7-(morpholin-2-ylmethyl)-7H-pyrrolo[2,3-d]pyrimidin-2-amine]", "IC50": "10 to 100"}
{"smiles": "Cc1ccc(-c2cc3cnc(NCc4ccc(F)c(F)c4)nc3n2C[C@@H]2CCCNC2)c(Cl)c1", "note": "[Example 5.1, (R)-6-(2-chloro-4-methylphenyl)-N-(3,4-difluorobenzyl)-7-(piperidin-3-ylmethyl)-7H-pyrrolo[2,3-d]pyrimidin-2-amine]", "IC50": "< 10"}
{"smiles": "COc1ccc(-c2cc3cnc(NCc4ccc(F)c(F)c4)nc3n2C[C@@H]2CCCNC2)c(Cl)c1", "note": "[Example 5.2, (R)-6-(2-chloro-4-methoxyphenyl)-N-(3,4-difluorobenzyl)-7-(piperidin-3-ylmethyl)-7H-pyrrolo[2,3-d]pyrimidin-2-amine]", "IC50": "10 to 100"}
{"smiles": "Oc1ccc(-c2cc3cnc(NCc4ccc(F)c(F)c4)nc3n2C[C@@H]2CCCNC2)c(Cl)c1", "note": "[Example 5.3, (R)-3-chloro-4-(2-(3,4-difluorobenzylamino)-7-(piperidin-3-ylmethyl)-7H-pyrrolo[2,3-d]pyrimidin-6-yl)phenol]", "IC50": "< 10"}
{"smiles": "Fc1ccc(CNc2ncc3cc(-c4ccc(Cl)cc4Cl)n(C[C@@H]4CCCNC4)c3n2)cc1F", "note": "[Example 5.4, (R)-6-(2,4-dichlorophenyl)-N-(3,4-difluorobenzyl)-7-(piperidin-3-ylmethyl)-7H-pyrrolo[2,3-d]pyrimidin-2-amine]", "IC50": "10 to 100"}
{"smiles": "Fc1cc(Cl)c(-c2cc3cnc(NCc4ccc(F)c(F)c4)nc3n2C[C@@H]2CCCNC2)c(Cl)c1", "note": "[Example 5.5, (R)-6-(2,6-dichloro-4-fluorophenyl)-N-(3,4-difluorobenzyl)-7-(piperidin-3-ylmethyl)-7H-pyrrolo[2,3-d]pyrimidin-2-amine]", "IC50": "< 10"}
{"smiles": "Oc1ccc(CNc2ncc3cc(-c4c(Cl)cccc4Cl)n(C[C@@H]4CCCNC4)c3n2)cc1Cl", "note": "[Example 6.1, (R)-2-chloro-4-((6-(2,6-dichlorophenyl)-7-(piperidin-3-ylmethyl)-7H-pyrrolo[2,3-d]pyrimidin-2-ylamino)methyl)phenol]", "IC50": "< 10"}
{"smiles": "Oc1ccc(CNc2ncc3cc(-c4c(Cl)cccc4Cl)n(C[C@@H]4CCCNC4)c3n2)cc1F", "note": "[Example 6.2, (R)-4-((6-(2,6-dichlorophenyl)-7-(piperidin-3-ylmethyl)-7H-pyrrolo[2,3-d]pyrimidin-2-ylamino)methyl)-2-fluorophenol]", "IC50": "< 10"}
{"smiles": "N#Cc1c(-c2c(Cl)cccc2Cl)n(C[C@@H]2CCCNC2)c2nc(NCc3ccc(F)c(F)c3)ncc12", "note": "[Example 7.1, (R)-6-(2,6-dichlorophenyl)-2-(3,4-difluorobenzylamino)-7-(piperidin-3-ylmethyl)-7H-pyrrolo[2,3-d]pyrimidine-5-carbonitrile]", "IC50": "< 10"}
{"smiles": "Fc1ccc(CNc2ncc3c(F)c(-c4c(Cl)cccc4Cl)n(C[C@@H]4CCCNC4)c3n2)cc1F", "note": "[Example 7.2, (R)-6-(2,6-dichlorophenyl)-N-(3,4-difluorobenzyl)-5-fluoro-7-(piperidin-3-ylmethyl)-7H-pyrrolo[2,3-d]pyrimidin-2-amine]", "IC50": "< 10"}
{"smiles": "Fc1ccc(CNc2ncc3c(Br)c(-c4c(Cl)cccc4Cl)n(C[C@@H]4CCCNC4)c3n2)cc1F", "note": "[Example 7.3, (R)-5-bromo-6-(2,6-dichlorophenyl)-N-(3,4-difluorobenzyl)-7-(piperidin-3-ylmethyl)-7H-pyrrolo[2,3-d]pyrimidin-2-amine]", "IC50": "< 10"}
{"smiles": "Fc1ccc(CNc2ncc3cc(-c4c(Cl)cccc4Cl)n(CC4CNCCS4)c3n2)cc1F", "note": "(centres unmarked) [Example 8.1, 6-(2,6-Dichlorophenyl)-N-(3,4-difluorobenzyl)-7-(thiomorpholin-2-ylmethyl)-7H-pyrrolo[2,3-d]pyrimidin-2-amine]", "IC50": "< 10"}
{"smiles": "Fc1ccc(CNc2ncc3cc(-c4c(Cl)cccc4Cl)n(C4CCCNCC4)c3n2)cc1F", "note": "(centres unmarked) [Example 8.2, 7-(Azepan-4-yl)-6-(2,6-dichlorophenyl)-N-(3,4-difluorobenzyl)-7H-pyrrolo[2,3-d]pyrimidin-2-amine]", "IC50": "< 10"}
